These results are taken from patent US20090062267A1, “L-ALANINE DERIVATIVES AS a5beta1 ANTAGONISTS” (ASTRAZENECA AB, priority 2007, published 2009).

The structures appear in SMILES notation.

recombinant human α5β1, sequence (P08648 42-1049): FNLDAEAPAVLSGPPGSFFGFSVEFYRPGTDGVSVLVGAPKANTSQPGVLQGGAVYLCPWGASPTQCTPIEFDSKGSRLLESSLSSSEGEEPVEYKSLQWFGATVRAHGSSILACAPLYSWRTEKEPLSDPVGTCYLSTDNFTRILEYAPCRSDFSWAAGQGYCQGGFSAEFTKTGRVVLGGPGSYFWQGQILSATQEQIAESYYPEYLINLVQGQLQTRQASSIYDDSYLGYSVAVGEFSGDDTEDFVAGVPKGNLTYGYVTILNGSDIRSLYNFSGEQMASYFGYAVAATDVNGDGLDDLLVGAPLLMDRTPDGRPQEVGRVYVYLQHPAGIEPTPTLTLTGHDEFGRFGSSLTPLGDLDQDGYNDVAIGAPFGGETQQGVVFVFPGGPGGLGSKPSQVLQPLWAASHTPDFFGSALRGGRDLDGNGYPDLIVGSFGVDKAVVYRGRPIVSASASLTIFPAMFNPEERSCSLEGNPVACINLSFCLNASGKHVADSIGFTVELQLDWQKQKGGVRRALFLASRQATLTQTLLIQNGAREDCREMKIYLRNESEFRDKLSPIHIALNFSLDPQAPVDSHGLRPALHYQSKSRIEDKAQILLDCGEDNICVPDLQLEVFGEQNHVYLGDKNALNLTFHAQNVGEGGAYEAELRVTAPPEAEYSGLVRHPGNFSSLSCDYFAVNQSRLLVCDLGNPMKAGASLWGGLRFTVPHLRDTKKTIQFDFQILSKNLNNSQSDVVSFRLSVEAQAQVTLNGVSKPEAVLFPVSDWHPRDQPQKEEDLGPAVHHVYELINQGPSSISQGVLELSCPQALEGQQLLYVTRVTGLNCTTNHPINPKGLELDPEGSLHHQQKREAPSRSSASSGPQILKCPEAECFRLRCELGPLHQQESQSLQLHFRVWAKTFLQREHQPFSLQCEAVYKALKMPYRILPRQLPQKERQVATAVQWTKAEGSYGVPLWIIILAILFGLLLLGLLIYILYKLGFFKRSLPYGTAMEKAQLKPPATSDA
recombinant human α5β1, sequence (P05556 21-798): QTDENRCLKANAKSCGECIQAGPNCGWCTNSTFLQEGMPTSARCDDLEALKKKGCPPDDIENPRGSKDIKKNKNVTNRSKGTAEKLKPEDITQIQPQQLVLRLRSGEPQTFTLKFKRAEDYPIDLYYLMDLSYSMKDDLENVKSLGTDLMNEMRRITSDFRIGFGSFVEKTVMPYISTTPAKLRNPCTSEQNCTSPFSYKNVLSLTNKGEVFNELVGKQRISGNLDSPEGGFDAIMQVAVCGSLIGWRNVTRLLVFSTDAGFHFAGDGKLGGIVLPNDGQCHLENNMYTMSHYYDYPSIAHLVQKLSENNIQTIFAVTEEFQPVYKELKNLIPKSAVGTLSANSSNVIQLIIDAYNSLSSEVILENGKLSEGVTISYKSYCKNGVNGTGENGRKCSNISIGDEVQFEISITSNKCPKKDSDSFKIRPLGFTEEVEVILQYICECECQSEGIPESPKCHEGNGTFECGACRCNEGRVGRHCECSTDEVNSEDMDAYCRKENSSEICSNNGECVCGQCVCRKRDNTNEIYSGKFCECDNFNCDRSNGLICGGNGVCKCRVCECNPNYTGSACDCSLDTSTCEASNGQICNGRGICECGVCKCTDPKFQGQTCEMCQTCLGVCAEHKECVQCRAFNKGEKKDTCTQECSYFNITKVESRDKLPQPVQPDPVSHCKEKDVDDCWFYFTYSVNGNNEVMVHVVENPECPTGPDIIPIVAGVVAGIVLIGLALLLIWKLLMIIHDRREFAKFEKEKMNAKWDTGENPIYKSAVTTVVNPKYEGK

The test concerns the target recombinant human α5β1 (Homo sapiens, UniProt P05556+P08648). The test can be described thus: In Vitro Binding Assay (a): inhibition of binding of α5β1 integrin to a fragment of human fibronectin (Fn9-10), Origen electrochemiluminescence. Particulars: geometric mean where tested more than once. The source says: The assay determined the ability of compounds to inhibit binding of α5β1 integrin to a cognate ligand, a fragment of human fibronectin. The assay used Origen technology (IGEN International) to measure the compound activity. Briefly, α5β1 integrin was coated onto epoxy-paramagnetic beads (Dynal Biotech UK, Bromborough, Wirral, CH62 3QL, UK, Catalogue No 140.11) and biotinylated-fibronectin ligand was coupled to strepatividin labeled Tag-NHS-Ester (BioVeris Corporation, Witney, Oxfordshire, OX28 4GE, UK, Catalogue No 110034). The ruthenium-labeled tag emits an electrochemiluminescence signal upon stimulation which is detected by the Origen reader. Thus, interaction of integrin and ligand causes association of bead and tag, and the resulting electrochemiluminescence signal reflects the level of integrin interaction with fibronectin.
20 μg of recombinant human α5β1 was coated onto 4×10(7) epoxy-paramagnetic beads according to manufacturers instructions at 4° C. for 24 hours. Integrin coating and corresponding activity was subsequently measured for each batch but typically, 25 ng of coated protein was used per assay well.
A DNA fragment encoding the domains 9-10 (amino-acids 1325-1509) of human fibronectin (Swiss-Prot Accession No. P02751) was isolated from cDNA libraries using standard molecular biology and PCR cloning techniques. The cDNA fragment was sub-cloned into a pT73.3 expression vector containing a GST-epitope tag (developed at AstraZeneca; Bagnall et al., Protein Expression and Purification, 2003, 27: 1-11). Following expression in E. coli, the expressed protein, termed Fn9-10, was purified using the GST-tag using standard purification techniques. The recombinant Fn9-10 was subsequently biotinylated using a EZ-link Sulfo-NHS-LC-Biotinylation kit (Perbio Science UK Ltd., Cramlington, Northumberland, NE23 1WA, UK, Catalogue No. 21335) and made to give a final concentration of approximately 1 mg/ml. Tag-NHS-Ester was labeled with streptavidin by incubation at room temperature following manufacturers instructions and buffer-exchanged into PBS to give a concentration of 0.5 mg/ml. Immediately prior to the assay, biotinylated-Fn9-10 and Streptavidin-labeled Tag were diluted in Assay Buffer to give a final concentrations of 0.6 ug/ml and 1.5 ug/ml respectively. The Fn9-10 and Tag solutions were then mixed together in equal volumes and incubated on ice for at least 30 minutes prior to the assay.
Aliquots (20 μl) of each compound dilution were placed into each well of a 384-well round bottomed polypropylene plate (Matrix Technologies, Wilmslow, Cheshire, SK9 3LP, Catalogue No. 4340 384).
For the assay, 25 ng (20 ul) of a5b1-bead suspension and 40 μl of the Fn9-10/Tag pre-incubated solution were added to each well containing 20 μl of compound or control solution. Assay plates were then incubated at room temperature for a minimum of 6 hours before being analysed on an Origen plate reader. The minimum value was subtracted from all values, and the signal was plotted against compound concentration to generate IC50 data.
The data in the above table was generated in an assay substantially as described above in relation to Binding Assay (a). Some of the compounds shown in the table were tested more than once in the assay. For those compounds the IC50 value shown is the geometric mean of the measured IC50 values.
In the case of `CNc1cccc(CCOc2ccc(C[C@H](NC(=O)c3sccc3Cl)C(=O)O)cc2)n1` [Example 1.1, N-[(3-chloro-2-thienyl)carbonyl]-O-{2-[6-(methylamino)pyridin-2-yl]ethyl}-L-tyrosine], the IC50 (in general, the concentration that inhibits the measured activity by half) is 12 nM.

As for `CNc1cccc(CCOc2ccc(C[C@H](NC(=O)c3ccc(C)nc3Cl)C(=O)O)cc2)n1` [Example 1.2, N-[(2-chloro-6-methylpyridin-3-yl)carbonyl]-O-{2-[6-(methylamino)pyridin-2-yl]ethyl}-L-tyrosine], the IC50 is 19 nM.

Regarding `CNc1cccc(CCOc2ccc(C[C@H](NC(=O)c3ccc(C)s3)C(=O)O)cc2)n1` [Example 1.3, O-{2-[6-(methylamino)pyridin-2-yl]ethyl}-N-[(5-methyl-2-thienyl)carbonyl]-L-tyrosine], the IC50 was found to be 229 nM.

As to `CNc1cccc(CCOc2ccc(C[C@H](NC(=O)c3cccn3C)C(=O)O)cc2)n1` [Example 1.4, O-{2-[6-(methylamino)pyridin-2-yl]ethyl}-N-[(1-methyl-1H-pyrrol-2-yl)carbonyl]-L-tyrosine], the IC50 stood at 55 nM.

`CNc1cccc(CCOc2ccc(C[C@H](NC(=O)c3sc(C)nc3C)C(=O)O)cc2)n1` [Example 1.5, N-[(2,4-dimethyl-1,3-thiazol-5-yl)carbonyl]-O-{2-[6-(methylamino)pyridin-2-yl]ethyl}-L-tyrosine]: the IC50 stood at 41 nM.

Take `CNc1cccc(CCOc2ccc(C[C@H](NC(=O)c3occc3C)C(=O)O)cc2)n1` [Example 1.6, O-{2-[6-(methylamino)pyridin-2-yl]ethyl}-N-(3-methyl-2-furoyl)-L-tyrosine]: the IC50 was determined as 151 nM.

As to `CCn1nc(C)cc1C(=O)N[C@@H](Cc1ccc(OCCc2cccc(NC)n2)cc1)C(=O)O` [Example 1.7, N-[(1-ethyl-3-methyl-1H-pyrazol-5-yl)carbonyl]-O-{2-[6-(methylamino)pyridin-2-yl]ethyl}-L-tyrosine], the concentration for half-maximal inhibition (IC50) stood at 73 nM.

`CNc1cccc(CCOc2ccc(C[C@H](NC(=O)c3sccc3C)C(=O)O)cc2)n1` [Example 1.8, O-{2-[6-(methylamino)pyridin-2-yl]ethyl}-N-[(3-methyl-2-thienyl)carbonyl]-L-tyrosine]: the IC50 is 19 nM.

In the case of `CNc1cccc(CCOc2ccc(C[C@H](NC(=O)c3cnccc3C)C(=O)O)cc2)n1` [Example 1.10, O-{2-[6-(methylamino)pyridin-2-yl]ethyl}-N-[(4-methylpyridin-3-yl)carbonyl]-L-tyrosine], the IC50 is 23 nM.

For `CNc1cccc(CCOc2ccc(C[C@H](NC(=O)c3cc(Cl)sc3Cl)C(=O)O)cc2)n1` [Example 1.11, N-[(2,5-dichloro-3-thienyl)carbonyl]-O-{2-[6-(methylamino)pyridin-2-yl]ethyl}-L-tyrosine], the half-maximal inhibitory concentration (IC50) worked out at 15 nM.

With `CNc1cccc(CCOc2ccc(C[C@H](NC(=O)c3ccoc3C)C(=O)O)cc2)n1` [Example 1.12, O-{2-[6-(methylamino)pyridin-2-yl]ethyl}-N-(2-methyl-3-furoyl)-L-tyrosine], the IC50 turned out to be 21 nM.

Take `CNc1cccc(CCOc2ccc(C[C@H](NC(=O)c3c(C)n[nH]c3C)C(=O)O)cc2)n1` [Example 1.13, N-[(3,5-dimethyl-1H-pyrazol-4-yl)carbonyl]-O-{2-[6-(methylamino)pyridin-2-yl]ethyl}-L-tyrosine]: the IC50 amounted to 17 nM.

Regarding `CNc1cccc(CCOc2ccc(C[C@H](NC(=O)c3c(C)nn(C)c3C)C(=O)O)cc2)n1` [Example 1.14, O-{2-[6-(methylamino)pyridin-2-yl]ethyl}-N-[(1,3,5-trimethyl-1H-pyrazol-4-yl)carbonyl]-L-tyrosine], the IC50 was found to be 13 nM.

`CNc1cccc(CCOc2ccc(C[C@H](NC(=O)c3c[nH]nc3C)C(=O)O)cc2)n1` [Example 1.15, O-{2-[6-(methylamino)pyridin-2-yl]ethyl}-N-[(3-methyl-1H-pyrazol-4-yl)carbonyl]-L-tyrosine]: the IC50 turned out to be 129 nM.

On to `CNc1cccc(CCOc2ccc(C[C@H](NC(=O)c3scnc3C)C(=O)O)cc2)n1` [Example 1.16, O-{2-[6-(methylamino)pyridin-2-yl]ethyl}-N-[(4-methyl-1,3-thiazol-5-yl)carbonyl]-L-tyrosine], for which the IC50 was found to be 24 nM.

Turning to `CNc1cccc(CCOc2ccc(C[C@H](NC(=O)c3scc(C)c3Cl)C(=O)O)cc2)n1` [Example 1.17, N-[(3-chloro-4-methyl-2-thienyl)carbonyl]-O-{2-[6-(methylamino)pyridin-2-yl]ethyl}-L-tyrosine], the IC50 worked out at 89 nM.

For `CNc1cccc(CCOc2ccc(C[C@H](NC(=O)c3ocnc3C)C(=O)O)cc2)n1` [Example 1.18, O-{2-[6-(methylamino)pyridin-2-yl]ethyl}-N-[(4-methyl-1,3-oxazol-5-yl)carbonyl]-L-tyrosine], the IC50 is 250 nM.

On to `CNc1cccc(CCOc2ccc(C[C@H](NC(=O)c3c(Cl)cncc3Cl)C(=O)O)cc2)n1` [Example 1.19, N-(3,5-dichloroisonicotinoyl)-O-{2-[6-(methylamino)pyridin-2-yl]ethyl}-L-tyrosine], for which the IC50 worked out at 1 nM.

For `CNc1cccc(CCOc2ccc(C[C@H](NC(=O)c3nc(C)oc3C)C(=O)O)cc2)n1` [Example 1.20, N-[(2,5-dimethyl-1,3-oxazol-4-yl)carbonyl]-O-{2-[6-(methylamino)pyridin-2-yl]ethyl}-L-tyrosine], the half-inhibitory concentration (IC50) came to 349 nM.

As for `CNc1cccc(CCOc2ccc(C[C@H](NC(=O)c3ccncc3C)C(=O)O)cc2)n1` [Example 1.21, O-{2-[6-(methylamino)pyridin-2-yl]ethyl}-N-(3-methylisonicotinoyl)-L-tyrosine], the IC50 is 10 nM.

In the case of `CNc1cccc(CCOc2ccc(C[C@H](NC(=O)c3nc(Cl)ccc3Cl)C(=O)O)cc2)n1` [Example 1.22, N-[(3,6-dichloropyridin-2-yl)carbonyl]-O-{2-[6-(methylamino)pyridin-2-yl]ethyl}-L-tyrosine], the concentration for half-maximal inhibition (IC50) came to 34 nM.

Take `CNc1cccc(CCOc2ccc(C[C@H](NC(=O)c3ncccc3Cl)C(=O)O)cc2)n1` [Example 1.23, N-[(3-chloropyridin-2-yl)carbonyl]-O-{2-[6-(methylamino)pyridin-2-yl]ethyl}-L-tyrosine]: the IC50 turned out to be 24 nM.

In the case of `CNc1cccc(CCOc2ccc(C[C@H](NC(=O)c3ncc(Cl)cc3Cl)C(=O)O)cc2)n1` [Example 1.24, N-[(3,5-dichloropyridin-2-yl)carbonyl]-O-{2-[6-(methylamino)pyridin-2-yl]ethyl}-L-tyrosine], the IC50 was 35 nM.

In the case of `CNc1cccc(CCOc2ccc(C[C@H](NC(=O)c3ncc(C(F)(F)F)cc3Cl)C(=O)O)cc2)n1` [Example 1.25, N-{[3-chloro-5-(trifluoromethyl)pyridin-2-yl]carbonyl}-O-{2-[6-(methylamino)pyridin-2-yl]ethyl}-L-tyrosine], the IC50 was determined as 36 nM.

For `CNc1cccc(CCOc2ccc(C[C@H](NC(=O)c3c(Cl)c4ccccc4n3C)C(=O)O)cc2)n1` [Example 1.26, N-[(3-chloro-1-methyl-1H-indol-2-yl)carbonyl]-O-{2-[6-(methylamino)pyridin-2-yl]ethyl}-L-tyrosine], the IC50 came to 111 nM.

On to `CNc1cccc(CCOc2ccc(C[C@H](NC(=O)c3cc(C)cs3)C(=O)O)cc2)n1` [Example 1.27, O-{2-[6-(methylamino)pyridin-2-yl]ethyl}-N-[(4-methyl-2-thienyl)carbonyl]-L-tyrosine], for which the IC50 was determined as 50 nM.

Consider `CCc1cc(C(=O)N[C@@H](Cc2ccc(OCCc3cccc(NC)n3)cc2)C(=O)O)cs1` [Example 1.28, N-[(5-ethyl-3-thienyl)carbonyl]-O-{2-[6-(methylamino)pyridin-2-yl]ethyl}-L-tyrosine], for which the IC50 is 75 nM.

With `CCCc1cc(C(=O)N[C@@H](Cc2ccc(OCCc3cccc(NC)n3)cc2)C(=O)O)cs1` [Example 1.29, O-{2-[6-(methylamino)pyridin-2-yl]ethyl}-N-[(5-propyl-3-thienyl)carbonyl]-L-tyrosine], the IC50 was found to be 71 nM.

In the case of `CNc1cccc(CCOc2ccc(C[C@H](NC(=O)c3csc(C(C)C)c3)C(=O)O)cc2)n1` [Example 1.30, N-[(5-isopropyl-3-thienyl)carbonyl]-O-{2-[6-(methylamino)pyridin-2-yl]ethyl}-L-tyrosine], the concentration for half-maximal inhibition (IC50) was found to be 132 nM.
